Assay results as given in patent US20140057915A1, “KINASE INHIBITORS” (TOPIVERT PHARMA LIMITED, priority 2012, published 2014).
pEC50, pIC50: −log10 of the molar value.

Tests used:
[1] = target: T1, GSK3α (Homo sapiens, UniProt P49840); assay: Enzyme binding assay (Kinomescan); conditions: read-out: % Inhibition of kinase binding at 500 nM, GSK3α
Procedure: (§1) These assays were conducted by DiscoverX (formerly Ambit; San Diego, Calif.). The percentage inhibition produced by incubation with a test compound is calculated relative to the non-inhibited control.

[2] = system: TNFα release, d-U937 cells; assay: LPS-induced TNFα release in d-U937 cells; type: cell-based; conditions: Homo sapiens, dU937; relative to 10 μg/mL BIRB796; Table 4c1; read-out: LPS Induced Release of Cytokine in d-U937 Cells, TNFα REC50
Procedure, shortened: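 Sandwich ELISA quantifies cytokine in supernatants after 4 hr LPS challenge (0.1 μg/mL) of PMA-differentiated (100 ng/mL, 48–72 hr) U937 macrophages given compound 2 hr beforehand. REC50 derived from concentration-response curve, inhibition calculated relative to vehicle.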

[3] = system: d-U937 cells; assay: Cell viability: MTT assay; type: cell-based, human; conditions: 1 μg/mL
Procedure, shortened: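 MTT reduction (1 h, DMSO solubilisation, A550) measured after compound treatment at 1 or 10 μg/mL of differentiated U937 cells for 4 h (5% FCS RPMI1640) or 24 h (10% FCS). Percentage viability loss computed relative to 0.5% DMSO vehicle, with increases tabulated as negative values.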

[4] = system: ICAM-1 expression, BEAS2B cells; assay: Poly I:C-induced ICAM-1 expression in BEAS2B cells; type: cell-based; conditions: Homo sapiens, BEAS-2B; read-out: Poly IC induced ICAM1 in BEAS2B, IC50
Procedure, shortened: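 Cell-based ELISA for surface ICAM-1 in human BEAS2B cells 18 h after transfection with the RNA-virus mimic poly I:C (1 μg/mL, with Oligofectamine), compounds added 2 h beforehand. OD450–655 divided by Crystal Violet OD595 per well; percent inhibition relative to vehicle.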

[5] = target: T2, Syk (Homo sapiens, UniProt P43405); assay: Enzyme binding assay (Kinomescan); conditions: read-out: % Inhibition of kinase binding at 500 nM, Syk
Procedure: (§2) Enzyme Binding Assays (Kinomescan)
as §1

[6] = target: B-Raf (Homo sapiens, UniProt P15056); assay: Enzyme binding assay (Kinomescan); conditions: read-out: % Inhibition of kinase binding at 500 nM, B-Raf
Sequence of B-Raf (P15056 whole entry): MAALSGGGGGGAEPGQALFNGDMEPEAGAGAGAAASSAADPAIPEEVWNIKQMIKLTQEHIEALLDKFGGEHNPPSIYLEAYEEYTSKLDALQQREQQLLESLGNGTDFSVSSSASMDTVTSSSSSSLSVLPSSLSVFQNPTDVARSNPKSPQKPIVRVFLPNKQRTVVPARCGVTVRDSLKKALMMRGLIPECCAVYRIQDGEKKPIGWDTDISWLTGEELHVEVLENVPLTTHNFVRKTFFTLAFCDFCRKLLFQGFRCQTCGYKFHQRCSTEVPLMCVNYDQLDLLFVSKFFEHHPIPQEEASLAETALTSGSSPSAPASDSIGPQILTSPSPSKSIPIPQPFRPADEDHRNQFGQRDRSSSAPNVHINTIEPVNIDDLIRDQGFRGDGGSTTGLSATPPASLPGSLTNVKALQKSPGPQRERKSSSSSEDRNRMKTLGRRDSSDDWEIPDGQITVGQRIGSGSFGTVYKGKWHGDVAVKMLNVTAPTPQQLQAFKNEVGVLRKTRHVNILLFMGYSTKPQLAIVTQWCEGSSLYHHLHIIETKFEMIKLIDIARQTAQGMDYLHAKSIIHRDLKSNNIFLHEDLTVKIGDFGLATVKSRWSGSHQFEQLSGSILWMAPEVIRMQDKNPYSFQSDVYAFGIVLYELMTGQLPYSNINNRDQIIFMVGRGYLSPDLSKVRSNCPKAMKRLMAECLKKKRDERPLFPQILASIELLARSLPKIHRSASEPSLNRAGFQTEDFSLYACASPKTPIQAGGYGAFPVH
Procedure: as §2
(§3) The kinase enzyme binding activities of compounds disclosed herein were determined using a proprietary assay which measures active site-directed competition binding to an immobilized ligand (Fabian, M. A. et al., Nature Biotechnol., 2005, 23:329-336). These assays were conducted by DiscoverX (formerly Ambit; San Diego, Calif.). The percentage inhibition produced by incubation with a test compound is calculated relative to the non-inhibited control.

[7] = target: p38 MAPKα (Homo sapiens, UniProt Q16539); assay: Enzyme binding assay (Kinomescan); conditions: read-out: % Inhibition of kinase binding at 500 nM, p38 MAPKα
Sequence of p38 MAPKα (Q16539 whole entry): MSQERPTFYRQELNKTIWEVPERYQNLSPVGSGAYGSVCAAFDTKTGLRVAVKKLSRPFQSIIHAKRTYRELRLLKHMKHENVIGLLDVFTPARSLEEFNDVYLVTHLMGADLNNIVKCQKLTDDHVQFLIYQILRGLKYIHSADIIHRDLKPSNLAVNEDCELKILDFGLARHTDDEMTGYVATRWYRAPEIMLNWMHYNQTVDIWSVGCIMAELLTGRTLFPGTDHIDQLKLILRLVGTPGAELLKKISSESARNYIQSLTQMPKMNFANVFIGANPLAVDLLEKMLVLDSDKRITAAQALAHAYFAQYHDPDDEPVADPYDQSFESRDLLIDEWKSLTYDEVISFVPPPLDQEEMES
Procedure: as §2, §3

[8] = system: mice; assay: Mouse cigarette (tobacco) smoke model; type: in vivo; conditions: 1.75 μg/mouse (35 μL, bid, i.n.)
Source text: The result of treatment with compound Example (8) on macrophage and neutrophil accumulation in BALF in the mouse cigarette smoke model was investigated (Table 5).

[9] = target: cSrc (Homo sapiens, UniProt P12931); assay: c-Src enzyme inhibition (FRET); type: biochemical; conditions: Table 4a1
Sequence of cSrc (P12931 whole entry): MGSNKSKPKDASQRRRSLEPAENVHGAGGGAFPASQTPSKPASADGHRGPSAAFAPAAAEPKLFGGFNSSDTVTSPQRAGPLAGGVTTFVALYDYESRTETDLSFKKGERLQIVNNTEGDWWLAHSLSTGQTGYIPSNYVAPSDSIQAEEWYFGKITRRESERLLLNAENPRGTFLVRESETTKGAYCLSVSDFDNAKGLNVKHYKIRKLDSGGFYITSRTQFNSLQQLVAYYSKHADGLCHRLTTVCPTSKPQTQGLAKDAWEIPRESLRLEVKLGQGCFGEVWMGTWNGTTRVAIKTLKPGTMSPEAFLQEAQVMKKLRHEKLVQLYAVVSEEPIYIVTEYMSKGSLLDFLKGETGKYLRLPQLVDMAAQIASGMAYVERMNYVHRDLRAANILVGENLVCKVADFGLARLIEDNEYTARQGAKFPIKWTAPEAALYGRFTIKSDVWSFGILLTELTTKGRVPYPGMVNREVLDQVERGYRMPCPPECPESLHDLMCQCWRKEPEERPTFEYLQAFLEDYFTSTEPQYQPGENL
Procedure, shortened: (§4)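 Kinase activity is measured on a dual-labelled synthetic peptide by FRET. ATP is supplied as an 800 μM solution for c-Src and a 60 μM solution for Syk. Compound is tested at four added concentrations, 4 to 0.004 μg/mL.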

[10] = target: T2, Syk; assay: Syk enzyme inhibition (FRET); type: biochemical; conditions: Table 4a1
Procedure, shortened: as §4

[11] = target: p38 MAPKα isoform (MAPK14) (Homo sapiens, UniProt Q16539); assay: p38 MAPKα enzyme inhibition (FRET, Z-LYTE), Method 1; type: biochemical; conditions: Table 4a1
Sequence of p38 MAPKα isoform (MAPK14) (Q16539 whole entry, canonical isoform): as the sequence (Q16539 whole entry) above
Procedure: The enzyme inhibitory activities of compounds disclosed herein are determined by FRET using synthetic peptides labelled with both donor and acceptor fluorophores (Z-LYTE, Invitrogen Ltd., Paisley, UK).
The following two assay variants are used for determination of p38 MAPKα inhibition.
The inhibitory activities of test compounds against the p38 MAPKα isoform (MAPK14: Invitrogen), are evaluated indirectly by determining the level of activation/phosphorylation of the down-stream molecule, MAPKAP-K2. The p38 MAPKα protein (80 ng/mL, 2.5 μL) is mixed with the test compound (2.5 μL of either 4 μg/mL, 0.4 μg/mL, 0.04 μg/mL or 0.004 μg/mL) for 2 hr at RT. […] The mixture is incubated for 1 hr at RT. Development reagent (protease, 5 μL) is added for 1 hr prior to detection in a fluorescence microplate reader (Varioskan® Flash, ThermoFisher Scientific).
In all cases, the site-specific protease cleaves non-phosphorylated peptide only and eliminates the FRET signal. Phosphorylation levels of each reaction are calculated using the ratio of coumarin emission (donor) over fluorescein emission (acceptor), for which high ratios indicate high phosphorylation and low ratios indicate low phosphorylation levels.

[12] = target: T1, GSK3α; assay: GSK 3α enzyme inhibition (FRET), Method 1; type: biochemical; conditions: Table 4a1
Procedure, shortened: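 Z-LYTE FRET format. Enzyme (500 ng/mL stock) + compound (stocks 4–0.004 μg/mL), 2 hr RT; add peptide (8 μM stock) + ATP (40 μM stock), 1 hr; protease 1 hr; read donor/acceptor emission ratio.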

[13] = system: IL-8 release, d-U937 cells; assay: LPS-induced IL-8 release in d-U937 cells; type: cell-based; conditions: Homo sapiens, dU937; Table 4c1; read-out: LPS Induced Release of Cytokine in d-U937 Cells, IL-8 IC50
Procedure, shortened: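 IL-8 release after a 4 hr challenge with LPS (0.1 μg/mL, E. coli 0111:B4) following a 2 hr compound pretreatment. Cells were human U937 monocytes differentiated to macrophage-type with PMA 100 ng/mL for 48–72 hr. Relative 50% effective concentration derived from concentration–response data.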

T1 sequence (P49840 whole entry): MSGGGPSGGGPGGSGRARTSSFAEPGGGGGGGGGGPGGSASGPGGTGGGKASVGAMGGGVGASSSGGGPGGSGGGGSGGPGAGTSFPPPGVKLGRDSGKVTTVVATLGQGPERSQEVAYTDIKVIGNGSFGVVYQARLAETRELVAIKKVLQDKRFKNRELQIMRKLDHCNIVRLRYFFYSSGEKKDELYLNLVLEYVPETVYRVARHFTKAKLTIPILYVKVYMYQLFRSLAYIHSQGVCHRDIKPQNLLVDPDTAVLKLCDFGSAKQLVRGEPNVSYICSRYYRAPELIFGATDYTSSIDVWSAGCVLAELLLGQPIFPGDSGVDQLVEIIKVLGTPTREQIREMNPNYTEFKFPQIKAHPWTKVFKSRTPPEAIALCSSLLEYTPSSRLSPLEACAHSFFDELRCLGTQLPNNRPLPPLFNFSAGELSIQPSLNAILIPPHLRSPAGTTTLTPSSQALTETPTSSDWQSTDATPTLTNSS

`COCC(=O)Nc1cc(Oc2ccc(NC(=O)Nc3cc(C(C)(C)C)nn3-c3ccc(C)cc3)c3ccccc23)ccn1` [Reference Compound, N-(4-(4-(3-(3-tert-butyl-1-p-tolyl-1H-pyrazol-5-yl)ureido)naphthalen-1-yloxy)pyridin-2-yl)-2-methoxyacetamide, reference compound] was tested, and the inhibition at 0.5 µM [1] was 84%, the pEC50 [2] was 9.89 and the “Cell viability at time point in d-U937 cells, 4 h” value [3] was “−ve (−ve and +ve indicate that the value is below and above respectively, the no significant effect threshold, defined as 30% inhibition at 1 μg/mL at the time point indicated)”. For the same compound, the “Cell viability at time point in d-U937 cells, 24 h” value [3] was “+ve (−ve and +ve indicate that the value is below and above respectively, the no significant effect threshold, defined as 30% inhibition at 1 μg/mL at the time point indicated)”, the pIC50 [4] was 8.68 and the inhibition at 0.5 µM [5] was 95%. It also gave an inhibition at 0.5 µM [6] of 70% and an inhibition at 0.5 µM [7] of 100%.

`CCC(=O)O[C@]1(C(=O)SCF)[C@H](C)C[C@H]2[C@@H]3C[C@H](F)C4=CC(=O)C=C[C@]4(C)[C@@]3(F)[C@@H](O)C[C@@]21C` [fluticasone propionate] was tested, and the “neutrophil or macrophage accumulation into airways” value [8] was “did not inhibit”.

Work on `COc1ccc(Nc2nccc(Oc3ccc(NC(=O)Nc4cc(C(C)(C)C)nn4-c4ccc(C)cc4)c4ccccc34)n2)cc1C(=O)NCCN1CCOCC1` [Example 13, 5-((4-((4-(3-(3-(tert-Butyl)-1-(p-tolyl)-1H-pyrazol-5-yl)ureido)naphthalen-1-yl)oxy)pyrimidin-2-yl)amino)-2-methoxy-N-(2-morpholinoethyl)benzamide] yielded a pEC50 [2] of 9.40, a pIC50 [9] of 8.70 and a pIC50 [10] of 7.80. For the same compound, the pIC50 [11] was 7.62, the pIC50 [12] was 6.17 and the “Cell viability at time point in d-U937 cells, 4 h” value [3] was “−ve (−ve and +ve indicate that the value is below and above respectively, the no significant effect threshold, defined as 30% inhibition at 1 μg/mL at the time point indicated)”. The “Cell viability at time point in d-U937 cells, 24 h” value [3] was “−ve (−ve and +ve indicate that the value is below and above respectively, the no significant effect threshold, defined as 30% inhibition at 1 μg/mL at the time point indicated)”, the pIC50 [13] was 9.52 and the pIC50 [4] was 8.77.
